Measurements published in the supplement of paper PMC13380429.

How the values were obtained:
Settings in all cases: 72 h
HepG2 [1] = test: drug sensitivity score (DSS) for viability; higher = more toxic; extreme values may be limits of the assay
Caco-2 [2] = test: as above
U2OS [3] = test: as above
Vero E6 [4] = test: as above
Calu-3 [5] = test: as above
HepG2 [6] = test: cell viability relative to DMSO; higher = less toxic
Caco-2 [7] = test: as above
U2OS [8] = test: as above
Vero E6 [9] = test: as above
Calu-3 [10] = test: as above
HepG2 [11] = test: relative viability EC50 (midpoint between 100% and the lowest measured viability); higher = less toxic
Caco-2 [12] = test: as above
U2OS [13] = test: as above
Vero E6 [14] = test: as above
Calu-3 [15] = test: as above

Structure (SMILES) | drug sensitivity score (HepG2 [1]) | drug sensitivity score (Caco-2 [2]) | drug sensitivity score (U2OS [3]) | drug sensitivity score (Vero E6 [4]) | drug sensitivity score (Calu-3 [5]) | cell viability (HepG2 [6]; 1 nM) | cell viability (HepG2 [6]; 10 nM) | cell viability (HepG2 [6]; 100 nM) | cell viability (HepG2 [6]; 1000 nM) | cell viability (HepG2 [6]; 10000 nM) | cell viability (Caco-2 [7]; 1 nM) | cell viability (Caco-2 [7]; 10 nM) | cell viability (Caco-2 [7]; 100 nM) | cell viability (Caco-2 [7]; 1000 nM) | cell viability (Caco-2 [7]; 10000 nM) | cell viability (U2OS [8]; 1 nM) | cell viability (U2OS [8]; 10 nM) | cell viability (U2OS [8]; 100 nM) | cell viability (U2OS [8]; 1000 nM) | cell viability (U2OS [8]; 10000 nM) | cell viability (Vero E6 [9]; 1 nM) | cell viability (Vero E6 [9]; 10 nM) | cell viability (Vero E6 [9]; 100 nM) | cell viability (Vero E6 [9]; 1000 nM) | cell viability (Vero E6 [9]; 10000 nM) | cell viability (Calu-3 [10]; 1 nM) | cell viability (Calu-3 [10]; 10 nM) | cell viability (Calu-3 [10]; 100 nM) | cell viability (Calu-3 [10]; 1000 nM) | cell viability (Calu-3 [10]; 10000 nM) | relative viability EC50 (HepG2 [11]) | relative viability EC50 (Caco-2 [12]) | relative viability EC50 (U2OS [13]) | relative viability EC50 (Vero E6 [14]) | relative viability EC50 (Calu-3 [15])
COc1cc2c(cc1OC)-c1cc3ccc(OC)c(OC)c3c[n+]1CC2 [palmatine-chloride] | 0.6 | 0 | 0 | 0 | 0 | 110% | 101% | 107% | 105% | 77.1% | 103% | 99.1% | 92.8% | 102% | 90.9% | 101% | 101% | 98.5% | 102% | 92.6% | 100% | 99.3% | 99.6% | 102% | 101% | 94.1% | 105% | 100% | 90.1% | 90% | > 10 µM | > 10 µM | > 10 µM | > 10 µM | > 10 µM
COc1ccc(Cc2nccc3cc(OC)c(OC)cc23)cc1OC [papaverine] | 3.7 | 1.7 | 0 | 0 | 1.5 | 111% | 109% | 92.9% | 100% | 32.7% | 95% | 91.9% | 95.8% | 86.1% | 77.8% | 101% | 92.5% | 99% | 96.5% | 89.7% | 103% | 105% | 105% | 108% | 90.1% | 91.3% | 98.8% | 98.8% | 87.6% | 81.2% | 3.17 µM | > 10 µM | > 10 µM | > 10 µM | > 10 µM
NCCCC[C@@H]1NC(=O)[C@@H](Cc2c[nH]c3ccccc23)NC(=O)[C@H](c2ccccc2)NC(=O)[C@@H]2C[C@@H](OC(=O)NCCN)CN2C(=O)[C@H](Cc2ccccc2)NC(=O)[C@H](Cc2ccc(OCc3ccccc3)cc2)NC1=O [pasireotide] | 0 | 0 | 0 | 0 | 0 | 91.9% | 105% | 114% | 102% | 93.3% | 108% | 107% | 88.4% | 110% | 146% | 96.7% | 104% | 95.8% | 102% | 108% | 98.9% | 89% | 96% | 83.6% | 96.8% | 102% | 101% | 87.8% | 106% | 108% | > 10 µM | > 10 µM | > 10 µM | > 10 µM | > 10 µM
